Experimental data: article PMC10732257 (Oncotarget, 2023)

Tests used:
[1] = target: T1, ETA (endothelin) (Homo sapiens, UniProt P25101); test: GPCR competitive antagonist (off-target inhibitory action) testing; format: cell-based
T1 construct: Wuxi AppTech (contract laboratory)
Source text: (§1) Supplementary Table 3: Results of off-target inhibitory action testing of GFH009 administered at
(§2) Competitive antagonist activity against GPCR type shown below

[2] = target: T2, a2a (adrenoceptor) (Homo sapiens, UniProt P08913); test: as above; format: cell-based
T2 construct: Wuxi AppTech (contract laboratory)
Source text: as §1, §2

[3] = tested on: AD2 (adenosine); test: as above; format: cell-based
Source text: as §1, §2

[4] = target: T3, D1 (dopamine) (Homo sapiens, UniProt P21728); test: as above; format: cell-based
T3 construct: Wuxi AppTech (contract laboratory)
Source text: as §1, §2

[5] = target: V1A (vasopressin) (Homo sapiens, UniProt P37288); test: as above; format: cell-based
Source text: as §1, §2

[6] = target: T4, 5-HT1A (serotonin) (Homo sapiens, UniProt P08908); test: as above; format: cell-based
T4 construct: Wuxi AppTech (Shanghai, China)
Source text: as §1, §2

[7] = target: op-d (opioid) (Homo sapiens, UniProt P41143); test: as above; format: cell-based
Source text: as §1, §2

[8] = target: T5, b2 (adrenoceptor) (Homo sapiens, UniProt P07550); test: as above; format: cell-based
T5 construct: Wuxi AppTech (contract laboratory)
Source text: as §1, §2

[9] = target: op-k (opioid) (Homo sapiens, UniProt P41145); test: as above; format: cell-based
Source text: as §1, §2

[10] = target: T6, b1 (adrenoceptor) (Homo sapiens, UniProt P08588); test: as above; format: cell-based
T6 construct: Wuxi AppTech (contract laboratory)
Source text: as §1, §2

[11] = target: H2 (histamine) (Homo sapiens, UniProt P25021); test: as above; format: cell-based
Source text: as §1, §2

[12] = target: op-m (opioid) (Homo sapiens, UniProt P35372); test: as above; format: cell-based
Source text: as §1, §2

[13] = target: T7, D2 (dopamine) (Homo sapiens, UniProt P14416); test: as above; format: cell-based
T7 construct: Wuxi AppTech (contract laboratory)
Source text: as §1, §2

[14] = target: T8, 5-HT2A (serotonin) (Homo sapiens, UniProt P28223); test: as above; format: cell-based
T8 construct: Wuxi AppTech (Shanghai, China)
Source text: as §1, §2

[15] = target: T9, 5-HT2B (serotonin) (Homo sapiens, UniProt P41595); test: as above; format: cell-based
T9 construct: Wuxi AppTech (Shanghai, China)
Source text: as §1, §2

[16] = target: T10, a1a (adrenoceptor) (Homo sapiens, UniProt P35348); test: as above; format: cell-based
T10 construct: Wuxi AppTech (contract laboratory)
Source text: as §1, §2

[17] = target: T11, 5-HT1B (serotonin) (Homo sapiens, UniProt P28222); test: as above; format: cell-based
T11 construct: Wuxi AppTech (Shanghai, China)
Source text: as §1, §2

[18] = target: T12, CCKa (Homo sapiens, UniProt P32238); test: as above; format: cell-based
T12 construct: Wuxi AppTech (contract laboratory)
Source text: as §1, §2

[19] = target: T13, CB1 (cannabinoid) (Homo sapiens, UniProt P21554); test: as above; format: cell-based
T13 construct: Wuxi AppTech (contract laboratory)
Source text: as §1, §2

[20] = target: T14, H1 (histamine) (Homo sapiens, UniProt P35367); test: as above; format: cell-based
T14 construct: Wuxi AppTech (contract laboratory)
Source text: as §1, §2

[21] = target: T15, CB2 (cannabinoid) (Homo sapiens, UniProt P34972); test: as above; format: cell-based
T15 construct: Wuxi AppTech (contract laboratory)
Source text: as §1, §2

[22] = tested on: MV-4-11 cells; test: Western blot of CDK9-regulated signaling in cultured cells; format: cell-based, human; conditions: 4-hour incubation
Procedure: Figure 4 Effect of GFH009 on CDK9-dependent gene expression in cells. Western blot of MV-4-11 cells after exposure to different concentrations of GFH009 or Enitociclib for 4 hours was analyzed. A representative blot was shown from 3 independent experiments.
The effect of GFH009 on CDK9-regulated signaling pathways in human hematological malignancy cell lines was assessed via western blot. Cultured MV-4-11 cells, derived from human blastic AML cells (ATCC), were incubated at 37°C and 5% CO2 for 4 hours at final concentrations of 1 μM, 0.3 μM, 0.1 μM, 0.03 μM, and 0.01 μM for both GFH009 and enitociclib. Protein isolates were collected from pelleted cells as previously described, semi-quantified via western blot and analyzed using Image Studio 5.0 (LI-COR Biosciences, Lincoln, NE, USA).

[23] = tested on: MV-4-11; test: Apoptosis by Annexin V/PI double staining, flow cytometry; format: cell-based, human; conditions: 6-hour treatment, DMSO control 6.4 ± 0.1%
Procedure: Figure 5 Apoptotic activity of GFH009 in human malignancy cell lines. Four cell lines, MV-4-11 (A), HL-60 (B), U937 (C), and NCI-H929 (D) were treated with different concentrations of GFH009 or enitociclib for 6 hours and harvested for cell apoptosis analysis using Annexin V/PI double staining. Data are presented as mean (SD) from multiple independent experiments. ^* P < 0.05, ^*** P < 0.001, ^**** P < 0.0001, one-way ANOVA with Dunnett’s test analysis compared to DMSO control group.
Initiation of apoptosis by GFH009 was assayed in multiple human cell lines, including MV-4-11, HL-60, U937, and NCI-H929. Cells were incubated at 37°C and 5% CO2 for 6 hours at final concentrations of 1 μM, 0.3 μM, 0.1 μM, 0.03 μM, and 0.01 μM for both GFH009 and Enitociclib. After drug treatment, cells were collected, and apoptosis determined using Annexin V-FITC and propidium iodide (PI) staining (Becton, Dickinson and Co, Franklin Lakes, NJ, USA). Samples were examined using an Attune NxT Flow Cytometer (Thermo Fisher Scientific, Waltham, MA, USA) within 1 hour of staining and analyzed using FlowJo vX.0.7 software. The apoptotic rate between groups was statistically compared by means of one-way ANOVA (Dunnett’s multiple comparisons test). Differences from the dimethyl sulfoxide (DMSO)-only treated control group was considered statistically significant at a P value of < 0.05. All plotting and statistical analysis were conducted using the Prism GraphPad 6 for Windows v6.01.

COC[C@@H](C)NC1CCC(Nc2cc(-c3csc(NCC4(C#N)CCOCC4)n3)c(Cl)cn2)CC1 (stereo partly drawn) [GFH009]
% Inhibitory Effect @ Max Dose (10 µM) [1]: −0.32%
% Inhibitory Effect @ Max Dose (10 µM) [2]: 5.16%
% Inhibitory Effect @ Max Dose (10 µM) [3]: −13.58%
% Inhibitory Effect @ Max Dose (10 µM) [4]: 1.10%
% Inhibitory Effect @ Max Dose (10 µM) [5]: −1.57%
% Inhibitory Effect @ Max Dose (10 µM) [6]: 12.31%
% Inhibitory Effect @ Max Dose (10 µM) [7]: −15.46%
% Inhibitory Effect @ Max Dose (10 µM) [8]: −3.46%
% Inhibitory Effect @ Max Dose (10 µM) [9]: 11.54%
% Inhibitory Effect @ Max Dose (10 µM) [10]: 30.48%
% Inhibitory Effect @ Max Dose (10 µM) [11]: −18.49%
% Inhibitory Effect @ Max Dose (10 µM) [12]: 20.94%
% Inhibitory Effect @ Max Dose (10 µM) [13]: 10.34%
% Inhibitory Effect @ Max Dose (10 µM) [14]: −7.10%
% Inhibitory Effect @ Max Dose (10 µM) [15]: −24.98%
% Inhibitory Effect @ Max Dose (10 µM) [16]: 68.39%
% Inhibitory Effect @ Max Dose (10 µM) [17]: 4.71%
% Inhibitory Effect @ Max Dose (10 µM) [18]: 16.26%
% Inhibitory Effect @ Max Dose (10 µM) [19]: −9.21%
% Inhibitory Effect @ Max Dose (10 µM) [20]: 12.37%
% Inhibitory Effect @ Max Dose (10 µM) [21]: −8.86%
Expression levels of MCL-1 and c-Myc ([22]; 0.01-1 μM, western blot): dose-dependently decreased
Expression level of phospho-Rpb1 CTD Ser2 ([22]; increasing concentration, western blot): gradually decreased
Expression levels of phospho-Rpb1 CTD Ser5 and total Rpb1 ([22]; vs DMSO-only control): not significantly different
Concentration inducing cleavage of caspase-3 and PARP ([22]; western blot): greater than 0.1 μM
Apoptosis rate ([23]; 0.01 μM): 6.3 ± 0.1%
Apoptosis rate ([23]; 0.03 μM): 7.4 ± 0.3%
Apoptosis rate ([23]; 0.1 μM): 38.1 ± 0.1%
Apoptosis rate ([23]; 0.3 μM): 67.4 ± 1.0%
Apoptosis rate ([23]; 1 μM): 61.2 ± 0.3%
